Laboratory results published in PubChem BioAssay (NCI).
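Five concentrations, 48 hours, 96-well plates. TGI: total growth inhibition.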

Legend:
Experiment in all cases: growth of human tumour cells (NCI), 48 h
DLD-1 colon = system: DLD-1 colon
MDA-N = system: MDA-N
DMS 273 small cell lung = system: DMS 273 small cell lung
LXFL 529 NSCLC = system: LXFL 529 NSCLC
XF 498 CNS = system: XF 498 CNS
RXF-631 renal = system: RXF-631 renal
HOP-18 NSCLC = system: HOP-18 NSCLC

Row | SMILES | TGI (DLD-1 colon) [µM] | TGI (MDA-N) [µM] | TGI (DMS 273 small cell lung) [µM] | TGI (LXFL 529 NSCLC) [µM] | TGI (XF 498 CNS) [µM] | TGI (RXF-631 renal) [µM] | TGI (HOP-18 NSCLC) [µM]
1 | Nc1nc(N)c(CCCCc2ccccc2)c(N)n1 | > 100 | > 100 | > 100 | > 100 | > 100 | – | –
2 | O=C(/C=C/c1ccc(Cl)c(Cl)c1)c1cccc2ccccc12 | 11.4 | – | 14.7 | 6.64 | – | 33.1 | 31.1
3 | CC1=C(C(=O)Nc2ccc(Cl)c(Cl)c2)C(c2ccc([N+](=O)[O-])cc2)C(C(=O)Nc2ccc(Cl)c(Cl)c2)=C(C)N1 | > 41.7 | – | 9.14 | 11.8 | 4.38 | 6.69 | 19.2
4 | N#CCN1C(=O)c2cc([N+](=O)[O-])cc3cc([N+](=O)[O-])cc(c23)C1=O | 29.4 | – | > 100 | > 50.6 | 25 | > 60.6 | > 100
5 | O=C1c2ccccc2N2OC3(N4CCCC4)CCCCC3C12c1ccccc1 (configuration not stated) | 46.3 | – | 30.9 | 27.7 | 41.1 | – | > 100
6 | Fc1cccc(F)c1C(Nc1nncs1)Nc1nncs1 | – | > 100 | – | – | – | – | –
7 | CCCC(S(=O)(=O)c1ccccc1)S(=O)(=O)c1ccccc1 | > 100 | – | > 100 | > 100 | > 100 | > 100 | –
8 | O=C1C=C(O)C(=Cc2c(O)cc(O)cc2O)C(O)=C1 | > 100 | – | > 100 | > 100 | > 100 | > 100 | > 100
9 | CN=C1OC2(c3ccccc3)C3=C(OC(=NC)N2C)C(=O)OC3(c2ccccc2)N1C (configuration not stated) | – | > 100 | – | – | – | – | –
10 | Oc1cc(-n2cccn2)c(O)cc1-n1cccn1 | > 94.8 | 33.5 | > 58.2 | 34.7 | 32.7 | > 100 | > 100
11 | N#CNc1nc(N)c(-c2ccc(Cl)cc2)c(C(=O)Nc2nccs2)n1 | > 100 | – | > 100 | > 100 | > 100 | – | > 100
12 | CNNC(=NS(=O)(=O)c1cc(C#N)c(NNC)cc1S)NNC | – | > 10 | – | – | – | – | –
13 | COc1ccc(-c2cc(=O)c3c(O)cccc3o2)c(OC)c1OC | > 100 | – | > 100 | > 100 | > 100 | > 100 | –
14 | Cc1cc2c(c(C(N)=O)c1C)-c1cc(Cl)cc(Cl)c1C2=O | > 100 | – | > 100 | > 100 | – | – | > 100
15 | O=C1OC(=O)c2c1c(-c1ccccc1)nc1ccccc21 | > 100 | – | > 100 | > 100 | > 100 | > 100 | –
16 | O=C1c2c(Br)sc(Br)c2[C@@H](NC(=O)C(F)(F)F)C1Br (some centres not stated) | – | 9.14 | – | – | – | – | –
17 | O=Cc1ccc2c(c1I)OCO2 | > 100 | – | > 100 | – | – | – | > 100
18 | ClC1=C(Cl)C(Cl)(Cl)c2c3c(c4c(c21)C(Cl)(Cl)C(Cl)=C4Cl)C(Cl)(Cl)C(Cl)=C3Cl | – | – | > 100 | > 100 | > 100 | – | –
19 | c1ccc2c(c1)CCc1c-2n[nH]c1-c1[nH]nc2c1CCc1ccccc1-2 | > 100 | – | > 100 | > 100 | > 100 | > 100 | > 100
20 | NC1=NC(=O)C(CC(=O)Nc2ccc(Cl)cc2Cl)S1 (configuration not stated) | > 100 | – | > 100 | > 100 | > 100 | – | –

Row | SMILES | TGI (DLD-1 colon) [µM] | TGI (MDA-N) [µM] | TGI (DMS 273 small cell lung) [µM] | TGI (LXFL 529 NSCLC) [µM] | TGI (XF 498 CNS) [µM] | TGI (RXF-631 renal) [µM] | TGI (HOP-18 NSCLC) [µM]
21 | Cc1cc(=O)c2c(O)cc3c(c2o1)CC=C(COC1OC(COC2OC(CO)C(O)C(O)C2O)C(O)C(O)C1O)CO3 (configuration not stated) | > 100 | – | > 100 | > 100 | > 100 | – | –
22 | N[C@H](COCc1ccccc1)c1ccccc1 | > 100 | – | 50 | 51.5 | 48.3 | – | > 89.8
23 | Cc1ccccc1-n1c(N)c(-c2nc3ccccc3[nH]2)sc1=S | 64.6 | – | 35 | 50.4 | – | 49.1 | 72.8
24 | Cc1ccc(NC(=O)C(=O)C(C(=O)/C=C/c2ccccc2)C2OC(=O)c3ccccc32)c(C)c1 (configuration not stated) | > 100 | – | – | > 100 | > 100 | > 100 | –
25 | O=C(Cc1nc2ccccc2o1)C(=O)Nc1cccc(C(F)(F)F)c1 | > 100 | – | > 100 | > 100 | – | > 100 | > 100
26 | O=C(O)CCNS(=O)(=O)c1ccc([N+](=O)[O-])cc1 | > 100 | – | > 100 | > 100 | > 100 | > 100 | > 100
27 | N#CC1(C#N)C(c2ccccc2)C=CC12OCCCO2 (configuration not stated) | 95.4 | – | > 100 | 95.2 | > 100 | > 100 | > 100
28 | CC1=C(CC2C(=O)N(c3ccccc3)S(=O)(=O)NC2C)C(=O)N(c2ccccc2)S(=O)(=O)N1C (configuration not stated) | > 100 | – | > 100 | > 100 | > 100 | > 100 | –
29 | CCOC(=O)/C(I)=C/c1cc(OC)c(OC)c(OC)c1 | 35.2 | – | 22.7 | 26.8 | 27.5 | – | 24
30 | NNc1nnc(-c2nnc(NN)o2)o1 | – | > 10 | – | – | – | – | –
31 | CC(=O)O[C@@H]1C[C@@]2(C)[C@@H]3CC=C4[C@@H](C[C@H](O)C(=O)C4(C)C)[C@]3(C)C(=O)C[C@]2(C)[C@H]1[C@@](C)(O)C(=O)/C=C/C(C)(C)OC(C)=O | – | 14.8 | – | – | – | – | –
32 | COc1cc(C2(C)SCCCS2)cc(OC)c1OC | > 100 | – | > 100 | > 100 | – | > 100 | > 100
33 | CCOC(=O)C1Nc2ccccc2[C@H]2OCC[C@@H]12 (some centres not stated) | > 100 | – | > 100 | – | > 100 | – | > 100
34 | O=C(NCCNCCO)c1cccc2ccc(-c3ccccc3)nc12 | 19.5 | – | 14.1 | – | – | 12.1 | 45.8
35 | COc1ccc(OC(=O)CC2Cc3cc(OC)c(OC)c(OC)c3-c3ccc(SC)c(=O)cc32)cc1 (configuration not stated) | > 34.6 | – | > 100 | 11.3 | 7.8 | > 100 | –
36 | CC(C)(C)c1cc2nc(c1)C(C(F)(F)F)(C(F)(F)F)OB(Br)OC2(C(F)(F)F)C(F)(F)F | 12.8 | – | 0.107 | 13.9 | 6.91 | 5.35 | –
37 | O=C(O)c1cc(CCc2cc(O)ccc2O)ccc1O | – | 27.1 | – | – | – | – | –
38 | C1CSCCSCCCSCCSCCCSCCSCCCSCCSC1 | – | > 100 | – | – | – | – | –
39 | C=CCC1(C)CCCN(Cc2ccccc2)C1=O (configuration not stated) | – | > 10 | – | – | – | – | –
40 | CC1=NN(c2ccccc2)C(=O)/C1=C\c1ccc([N+](=O)[O-])cc1 | > 100 | – | 62.7 | > 100 | 44.6 | 77.4 | –
